Results taken from patent publication US10918643B2, “No-donors for the treatment of cerebrovascular vasospasms after brain hemorrhage” (Westfaelische Wilhelms-Universitaet Muenster, priority 2015, dated 2021).

Legend:
[1] = system: vasospasm and DCI after SAH; details: cited from earlier work
[2] = system: delayed cerebral ischemia (DCI) after aneurismal SAH; assay: Clinical neurological status and outcome (Hunt&Hess, WFNS, GCS, mNIH-SS, mRS) of the SAH patient; details: for recurrent clinical deteriorations (times observed): despite Nimodipine and Molsidomine infusions, right- and left-sided deficits or coma
[3] = system: cerebral arteries / brain perfusion after aneurismal SAH; assay: Radiology (CT, CT-A, CT-P, DSA/arteriography, MRI) of the SAH patient; assay type: in vivo, human
[4] = system: cerebral vasospasm of the middle cerebral artery (MCA) after aneurismal SAH; assay: Transcranial Doppler (TCD) mean blood flow velocity in the MCAs, rescue treatment of one SAH patient; details: for MCA TCD R/L PRE, right / MCA TCD R/L PRE, left: continuously infused Molsidomine
[5] = 3, 6, and 12 months follow up, continuous Molsidomine plus intraventricular SNP boluses
[6] = Discharge at 38th POD, after Molsidomine + Nimodipine + 7 SNP boluses
[7] = discharge on the 38th day after SAH
[8] = discharge on the 38th day after SAH, Nimodipine + Molsidomine + 7 SNP boluses

COc1ccccc1Oc1c(NS(=O)(=O)c2ccc(C)cn2)nc(-c2ccnc(-c3nnn[nH]3)c2)nc1OCCO [Clazosentan]
outcome despite powerful suppression of (measurable) vasospasms ([1]; Macdonald et al. 2007): does not lead to an improved outcome

COCCOC(=O)C1=C(C)NC(C)=C(C(=O)OC(C)C)C1c1cccc([N+](=O)[O-])c1 (stereo not drawn) [Nimodipine]
recurrent clinical deteriorations (times observed) [2]: 7 times

CCOC(=O)[N-]c1c[n+](N2CCOCC2)no1 [Molsidomine, N-ethoxycarbonyl-3-morpholinosydnonimine]
RADIOLOGY pre SNP (CT; CT-A; CT-P) ([3]; POD 17th 4th episode, before 4th SNP dose, during Molsidomine, both sides l > r, CTT prolonged, high grade vasospasm in MCAs and ACA): impaired perfusion | RADIOLOGY MRI: temporal ischemic lesion and gliosis at ventricular drainage site ([3]; POD 23-38, tapering of Molsidomine and Nimodipine): MRI (5): tiny | clinical outcome and cerebral infarction ([1]; SAH patients treated with intravenous molsidomine (Ehlert et al., 2015)): significant improvement in clinical outcome and less cerebral infarction | cognitive deficit [2, 5]: did not have any cognitive deficit | mNIH-SS [2, 5]: 0 | mRS [2, 5]: 0 | RESULT: cognitive skills [2, 6]: full cognitive | RESULT: mNIH-SS [2, 6]: mNIH-SS: 0 | RESULT: mRS [2, 6]: mRS: 0 | clinical stabilization (Hunt&Hess grade I, WFNS I) ([2]; Molsidomine given after failure of standard therapy, before vasospasm and DCI progressed): clinical stabilization had been achieved for a week | recurrent clinical deteriorations (times observed) [2]: 7 times | Hunt&Hess grade [2, 7]: 0 | cognitive deficit [2, 7]: without cognitive deficit | mNIH-SS grade [2, 8]: 0 | mRS grade [2, 8]: 0 | clinical status (HH I, WFNS I) ([2]; intravenous Molsidomine at the full dose, for several days): clinically stable | GCS ([2]; intravenous Molsidomine at the full dose, several days): 14-15 | TCD mean flow velocity in the left MCA (LMCA) ([4]; 9th day after SAH at deterioration under Molsidomine, before SNP, 140 cm/sec the day before): 150 cm/s | TCD mean flow velocity in the RMCA ([4]; 9th day after SAH at deterioration under Molsidomine, before SNP, unchanged): 80 cm/s | MCA TCD R/L PRE, right ([4]; POD 9th first episode (R hemiplegia, aphasia), before 1st SNP dose, mean flow): r: 160/ cm/sec | MCA TCD R/L PRE, left ([4]; POD 9th first episode, before 1st SNP dose, mean flow): l: 150 cm/sec | MCA TCD R/L PRE, right ([4]; POD 9th second episode (hemiplegia l, sopor), before 2nd SNP dose): r: 190 cm/sec | MCA TCD R/L PRE, right ([4]; POD 10th 3rd episode (hemiplegia l, sopor), before 3rd SNP dose): r: 170 cm/sec | MCA TCD R/L PRE, right ([4]; POD 17th 4th episode (hemiplegia, hemiparesis, sopor, intubation), before 4th SNP dose): R: 170 cm/sec | MCA TCD R/L PRE, left ([4]; POD 17th 4th episode, before 4th SNP dose): L: 120 cm/sec | MCA TCD R/L PRE, right ([4]; POD 18 6th episode (still intubated), before 6th SNP dose): R: 160 cm/sec | MCA TCD R/L PRE, left ([4]; POD 18 6th episode, before 6th SNP dose): L: 110 cm/sec | MCA TCD R/L PRE, right ([4]; POD 22 7th episode (sudden loss of vigilance), before 7th SNP dose): R: 180 cm/sec | MCA TCD R/L PRE, left ([4]; POD 22 7th episode, before 7th SNP dose): L: 140 cm/sec | MCA TCD R/L (values) ([4]; POD 23-38, tapering of Molsidomine and Nimodipine, after 7 SNP boluses): Normal | mean blood flow velocities in both MCAs ([4]; intravenous Molsidomine at the full dose (16 mg/hr), with Nimodipine): ≤ 160 cm/s
